Data reported in patent publication US11931322B2, “Solubilizate with curcumin and optionally at least one other active substance” (priority 2017, dated 2024).

Columns and labels:
Type in all cases: in vivo, Wistar rats
[1] = system: total antioxidant capacity (TAC); assay: Total antioxidant capacity (TAC) in the serum of arthritic rats; conditions: for TAC: serum of arthritic rats, n=8, mean ± SEM
Experimental: (§1) Prof. Dr. […] from the University of Cairo, Faculty of Pharmacy at the Institute for Pharmacology, performed studies on the anti-inflammatory effect of curcumin and combinations of curcumin with Boswellia or xanthohumol, in each case in the native form and in the solubilized form according to the disclosure. Anti-inflammatory markers and antioxidant capacity were determined. Female Wistar rats with a body weight between 150 and 200 g were exposed to adjuvant induced arthritis according to Pearson et al. (1956). At day 0, the animals were administered 0.1 ml of Freund's Adjuvant (FCA) in the right hind paw, by subplantar injection. The animals were randomly divided into 12 groups of 8 animals each. All extracts or solubilizates were administered orally once daily from day 0 to day 21 following the vaccination with the adjuvant. After day 21, the animals were killed and serum samples were prepared and stored at -80° C. Measurements were made of myeloperoxidase (MPO), C-reactive protein (CRP), total antioxidant capacity (TAC), and thiobarbituratic acid reactive substances (TBARS). Oxidative stress is one of the major factors contributing to joint destruction in rheumatoid arthritis (RA). An increase in the production of so-called “reactive oxygen species (ROS)” leads to a reduced supply of endogenous antioxidants and ultimately results in the destruction of cells. The neutrophil granulocytes released in the rheumatoid joint produce free oxygen radicals which cause increased formation of lipid peroxides manifesting in an increase in serum TBARS. Therefore, an increase in antioxidant status represented by an increase in TAC can be used as an indication of protection against the development of degenerative inflammatory processes. There is an inverse relationship between the levels of TAC and TBARS, a high level of antioxidant capacity TAC corresponds to a low TBARS concentration. The table contains data on the effect of curcumin and Boswellia in native and in solubilized form, administered either alone or in combination with diclofenac in a dose of 3 mg per kg body weight once daily for 21 days, on the antioxidant capacity TAC and the thiobarbituric acid reactive substances TBARS in the serum of arthritic rats (n=8). Indicated are mean values±standard error of the mean (SEM).

C-reactive protein (CRP) = assay: Serum C-reactive protein (CRP) in adjuvant-induced arthritic rats; conditions: 5 and 10 mg/kg, FIG. 1a
Experimental: (§2) Prof. Dr. […] from the University of Cairo, Faculty of Pharmacy at the Institute for Pharmacology, performed studies on the anti-inflammatory effect of curcumin and combinations of curcumin with Boswellia or xanthohumol, in each case in the native form and in the solubilized form according to the disclosure. Anti-inflammatory markers and antioxidant capacity were determined. Female Wistar rats with a body weight between 150 and 200 g were exposed to adjuvant induced arthritis according to Pearson et al. (1956). At day 0, the animals were administered 0.1 ml of Freund's Adjuvant (FCA) in the right hind paw, by subplantar injection. The animals were randomly divided into 12 groups of 8 animals each. Group 1 was the control group. Group 2 received diclofenac as a reference drug in a dose of 3 mg/kg body weight. Group 3 received native curcumin in a dose of 5 mg/kg body weight. Group 4 received curcumin solubilized according to the disclosure in a dose of 5 mg/kg body weight. Group 5 received native curcumin in a dose of 10 mg/kg body weight, and Group 6 received curcumin solubilized in the same dose. Group 7 received native xanthohumol in a dose of 5 mg/kg body weight, and Group 8 received solubilized xanthohumol in the same dose. Group 9 received a mixture of native curcumin in a dose of 5 mg/kg body weight and native Boswellia extract in a dose of 10 mg/kg body weight. […]

myeloperoxidase (MPO) = assay: Serum myeloperoxidase (MPO) in adjuvant-induced arthritic rats; conditions: both dosages (5 and 10 mg/kg), FIG. 2
Experimental: as §2

[2] = system: thiobarbituric acid reactive substances (TBARS); assay: Thiobarbituric acid reactive substances (TBARS) in the serum of arthritic rats; conditions: for TBARS: serum of arthritic rats, n=8, mean ± SEM
Experimental: as §1

[3] = 10 mg/kg once daily for 21 days
[4] = arthritic rats, both dosages considered

Row | Compound | TAC ([1]; 5 mg/kg once daily for 21 days) | TAC [1, 3] | effect on TAC (in words) [1, 4] | effect on rat serum CRP levels (in words) (C-reactive protein (CRP)) | effect on MPO concentration (in words) (myeloperoxidase (MPO)) | TBARS ([2]; 5 mg/kg once daily for 21 days) | TBARS [2, 3] | effect on the TBARS level (in words) [2, 4] | TAC ([1]; 3 mg/kg once daily for 21 days) | TBARS ([2]; 3 mg/kg once daily for 21 days)
1 | COc1cc(/C=C/C(=O)CC(=O)/C=C/c2ccc(O)c(OC)c2)ccc1O [Native curcumin, curcumin] | 60.31 ± 3.25 nmol/µL | 68.41 ± 1.09 nmol/µL | no significant effect | inhibited rat serum CRP levels in a dose-dependent manner | no effect on the MPO levels | 11.64 ± 0.39 nmol/L | 13.18 ± 0.46 nmol/L | no significant effect |  | 
2 | O=C(O)Cc1ccccc1Nc1c(Cl)cccc1Cl [Diclofenac, diclofenac] |  |  |  |  |  |  |  |  | 82.08 ± 2.96 nmol/µL | 7.93 ± 0.84 nmol/L
